Source: patent publication US20090023589A1, “METHODS FOR IDENTIFYING CONDITIONS AFFECTING A CELL STATE” (priority 2004, published 2009)

Test system: HL-60 cells
Test: Surface marker expression profile of HL-60 cells after combinatorial differentiation (flow cytometry, percent positive cells, hierarchical clustering)
Assay type: cell-based
Conditions: for expression of cell surface marker CD 125w: med concentrations, sodium butyrate at pH 7.8; for monocyte signature profile (CD 14hi, CD11b/Mac-1hi, CD 13+, CD66b-): binary and ternary combinations, clustering on myeloid markers
Experimental: HL-60 cells were used to study what factors are involved in cellular differentiation. At day 0, the cells were plated in wells using a 96 well plate at a seeding density of approximately 60,000 cells, appropriate cell media was added. […] Cells were induced with the factors in Table 1 and 2. At day 4, the cells were harvested and labeled with antibody (see Table 3) for cytometry. The labeling was accomplished by washing the cells with PBS (phosphate buffered saline). Then gamma globulin was used to block non-specific binding sites. The gamma globulin treatment lasted for approximately 20 minutes at room temperatures on a rocker shaker.
The antibody cocktail concentration for each antibody used was based on manufacturer's instruction adjusted for final cell number. The antibody cocktail was incubated for 30 minutes at room temperature on rocking shaker. Following the incubation, the cells were washed using PBS. The cells were resuspended in 1% ultrapure methanol free formaldehyde and refrigerated until analysis. The cells were analyzed using a BD FACSCalibur equipped with a high throughput sampler (HTS) which has a dual laser excitation line: argon (488 nm) and red diode (635 nm).
The positive control for these experiments was 100 nm vitamin D3 plus CD 14 antibody. The negative controls were (1) untreated cells plus antibody cocktails located on the plates; and (2) fresh untreated cells plus antibody cocktails located on separate plates.
HL-60 cells were exposed to five well studied chemical differentiation factors (dimethylsulfoxide (DMSO), Vitamin D3, Phorbol-12-myristate-13-acetate (PMA), Sodium butyrate+pH 7.8, and all-Trans Retinoic Acid (ATRA)) known to promote differentiation along three distinct pathways (neutrophil, monocyte, eosinophil/basophil) within the myeloid lineage. Differentiation was induced by creating binary and ternary five factor combinations using the five factors at three concentrations for the binary experiment and two concentrations for the ternary experiment.
To observe experiment-wide profiles of marker expression, we used the percentage of positive cells for all markers and constructed a profile for each combinatorial treatment. Hierarchical clustering orders the data so that the most similar profile are next to each other in the plot.
To refine cluster analysis with relevant information, one can choose specific cell surface markers. In order to test the validity of the experiment, we clustered based on cell surface markers known to be expressed in the myeloid lineage: CD66b, CD11b/Mac-1, CD13+CD 14 (FIG. 8 a,b). Cells which have differentiated toward the monocytic lineage have a CD 14^hi, CD11b/Mac-1^hi, CD 13^+, CD66b^− expression profile.

In the case of C[S+](C)[O-] [DMSO, dimethylsulfoxide], the “expression of cell surface marker CD 125w” value is reported as “neither DMSO^med nor sodium butyrate^med, pH 7.8 alone produced cells positive for CD 125w”.
CCCCCCCCCCCCCC(=O)O[C@@H]1[C@@H](C)[C@@]2(O)[C@@H](C=C(CO)C[C@]3(O)C(=O)C(C)=C[C@@H]23)[C@@H]2C(C)(C)[C@]12OC(C)=O [PMA, Phorbol-12-myristate-13-acetate] was tested, and the “monocyte signature profile (CD 14hi, CD11b/Mac-1hi, CD 13+, CD66b-)” value was “contributed to the monocyte signature profile”.
In the case of C=C1CC[C@H](O)C/C1=C/C=C1\CCC[C@]2(C)[C@@H]([C@H](C)CCCC(C)C)CC[C@@H]12 [Vitamin D3], the “monocyte signature profile (CD 14hi, CD11b/Mac-1hi, CD 13+, CD66b-)” value is reported as “contributed to the monocyte signature profile”.
CCCC(=O)[O-].[Na+] [sodium butyrate, Sodium butyrate] was tested, and the “expression of cell surface marker CD 125w” value was “neither DMSO^med nor sodium butyrate^med, pH 7.8 alone produced cells positive for CD 125w”.
